This is an account of results in patent US8822451B2, “Modulators of ATP-binding cassette transporters” (Vertex Pharmaceuticals Incorporated, priority 2005, dated 2014).

SMILES strings stand for the structures.

The target of the test is T1, […]F508-CFTR (Homo sapiens, UniProt P13569, DEL508-508).
T1 construct: expressed in transfected cells
The test is described as follows: Assay results of Table 3: ΔF508-CFTR modulation, membrane potential optical assay (assay format not stated). The format is cell-based. The following applies: NIH3T3 mouse fibroblasts stably expressing […]F508-CFTR (optical assays); for Efficacy: efficacy range; for EC50: potency range. In a few lines: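 NIH3T3 mouse fibroblasts stably expressing ΔF508-CFTR; FRET membrane-potential dyes (CC2-DMPE/DiSBAC2(3)) read on VIPR II. Correctors: 16 h at 37° C. with compound, then 10 μM forskolin + 20 μM genistein in Cl⁻-free medium. Potentiators: cells at 27° C. 24 h, compound then 2-10 μM forskolin; EC50 and efficacy derived.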

T1 sequence (P13569 with tags, fused parts or gaps DEL508-508): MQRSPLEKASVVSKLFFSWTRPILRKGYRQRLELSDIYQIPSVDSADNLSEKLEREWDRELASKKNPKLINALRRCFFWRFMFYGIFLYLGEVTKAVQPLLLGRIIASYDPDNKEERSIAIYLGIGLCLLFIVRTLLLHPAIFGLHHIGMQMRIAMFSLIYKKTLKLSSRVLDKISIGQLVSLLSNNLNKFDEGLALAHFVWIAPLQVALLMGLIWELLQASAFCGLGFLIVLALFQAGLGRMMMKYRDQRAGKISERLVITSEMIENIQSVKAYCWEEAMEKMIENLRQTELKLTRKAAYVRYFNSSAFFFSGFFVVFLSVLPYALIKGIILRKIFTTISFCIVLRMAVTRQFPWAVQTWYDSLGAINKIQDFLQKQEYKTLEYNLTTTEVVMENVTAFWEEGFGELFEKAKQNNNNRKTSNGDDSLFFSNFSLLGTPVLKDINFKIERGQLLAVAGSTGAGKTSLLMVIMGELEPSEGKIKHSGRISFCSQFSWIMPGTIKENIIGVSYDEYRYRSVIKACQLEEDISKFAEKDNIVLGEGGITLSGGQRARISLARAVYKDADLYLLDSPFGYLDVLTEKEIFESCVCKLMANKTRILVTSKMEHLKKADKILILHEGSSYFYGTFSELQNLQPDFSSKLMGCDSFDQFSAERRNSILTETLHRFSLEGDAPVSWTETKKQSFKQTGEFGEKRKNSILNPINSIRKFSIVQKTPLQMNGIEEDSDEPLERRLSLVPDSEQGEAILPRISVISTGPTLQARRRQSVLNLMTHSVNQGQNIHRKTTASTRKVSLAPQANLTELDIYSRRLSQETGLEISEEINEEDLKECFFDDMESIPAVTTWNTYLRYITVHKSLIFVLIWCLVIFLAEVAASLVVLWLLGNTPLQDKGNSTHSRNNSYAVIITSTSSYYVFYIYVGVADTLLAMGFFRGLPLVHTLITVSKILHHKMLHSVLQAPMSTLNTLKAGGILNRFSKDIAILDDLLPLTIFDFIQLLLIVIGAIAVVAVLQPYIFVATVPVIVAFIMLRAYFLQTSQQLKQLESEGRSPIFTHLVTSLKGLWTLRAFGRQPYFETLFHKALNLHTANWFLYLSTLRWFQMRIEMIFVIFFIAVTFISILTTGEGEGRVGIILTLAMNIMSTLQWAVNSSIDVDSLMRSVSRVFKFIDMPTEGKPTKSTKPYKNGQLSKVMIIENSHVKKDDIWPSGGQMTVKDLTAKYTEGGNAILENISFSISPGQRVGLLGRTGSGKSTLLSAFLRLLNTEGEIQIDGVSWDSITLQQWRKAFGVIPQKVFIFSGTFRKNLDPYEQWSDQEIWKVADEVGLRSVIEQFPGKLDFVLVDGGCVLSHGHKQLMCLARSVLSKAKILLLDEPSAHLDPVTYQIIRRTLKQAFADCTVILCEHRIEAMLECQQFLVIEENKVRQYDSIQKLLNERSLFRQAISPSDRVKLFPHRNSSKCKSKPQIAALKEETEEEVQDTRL

In general, EC50 refers to the midpoint of the concentration-response curve. Regarding `CCCCCCN(C)c1nc(C(N)=O)cc(-c2ccccc2)n1` [Compound 201], the Efficacy result is reported as “+++ (+++ corresponds to Efficacy greater than 100)” and the EC50 was 1 to 5 µM.

As for `NC(=O)c1cc(-c2cc(Cl)ccc2Cl)nc(N2CCCCC2)n1` [Compound 202], the Efficacy result was “++ (++ corresponds to Efficacy between 100 and 50)”; the EC50 is 1 to 5 µM.

In the case of `COc1cccc(-c2cc(C(N)=O)nc(NCC3CC3)n2)c1` [Compound 203], the Efficacy entry was “+++ (+++ corresponds to Efficacy greater than 100)” and the EC50 is over 5 µM.

As for `C#CCN(C)c1nc(C(N)=O)cc(-c2ccccc2)n1` [Compound 204], the Efficacy entry was “++ (++ corresponds to Efficacy between 100 and 50)”; the EC50 is 1 to 5 µM.

For `COc1ccccc1-c1cc(C(N)=O)nc(N2CCCCC2)n1` [Compound 205], the Efficacy result was “++ (++ corresponds to Efficacy between 100 and 50)”; the EC50 is over 5 µM.

As for `CC(C)CCN(C)c1nc(C(N)=O)cc(-c2ccccc2)n1` [Compound 206], the Efficacy entry was “++ (++ corresponds to Efficacy between 100 and 50)”; the EC50 is 1 to 5 µM.

In the case of `CCN(CC)c1nc(C(N)=O)cc(-c2ccc(C)c(C)c2)n1` [Compound 207], the Efficacy result is recorded as “+++ (+++ corresponds to Efficacy greater than 100)” and the EC50 was 1 to 5 µM.

With `COc1ccccc1-c1cc(C(N)=O)nc(N(C)C)n1` [Compound 208], the Efficacy entry was “+ (+ corresponds to Efficacy less than 50)” and the EC50 was over 5 µM.

Consider `CCOC(=O)CN(C)c1nc(C(N)=O)cc(-c2ccccc2)n1` [Compound 209], for which the Efficacy result is “++ (++ corresponds to Efficacy between 100 and 50)”; the EC50 lay within 1 to 5 µM.

With `CCN(CC)c1nc(C(N)=O)cc(-c2cccc(Cl)c2Cl)n1` [Compound 210], the Efficacy result was “++ (++ corresponds to Efficacy between 100 and 50)”; the EC50 is under 1 µM.

For `COc1cccc(-c2cc(C(N)=O)nc(N3CCOCC3)n2)c1` [Compound 211], the Efficacy entry was “++ (++ corresponds to Efficacy between 100 and 50)”; the EC50 is over 5 µM.

As for `CCOc1cccc(-c2cc(C(N)=O)nc(N(CC)CC)n2)c1` [Compound 212], the Efficacy result was “+++ (+++ corresponds to Efficacy greater than 100)” and the concentration for a half-maximal effect (EC50) is under 1 µM.

On to `NC(=O)c1cc(-c2cccc(OC(F)(F)F)c2)nc(N2CCCCC2)n1` [Compound 213], for which the Efficacy result is on record as “+ (+ corresponds to Efficacy less than 50)” and the EC50 fell in the range of 1 to 5 µM.

On to `CCN(CC)c1nc(C(N)=O)cc(-c2csc3ccccc23)n1` [Compound 214], for which the Efficacy entry was “++ (++ corresponds to Efficacy between 100 and 50)”; the EC50 is under 1 µM.

Regarding `CCNc1nc(C(N)=O)cc(-c2ccccc2)n1` [Compound 215], the Efficacy entry was “++ (++ corresponds to Efficacy between 100 and 50)”; the EC50 was over 5 µM.

Turning to `NC(=O)c1cc(-c2ccccc2)nc(NCc2ccco2)n1` [Compound 216], the Efficacy entry is “++ (++ corresponds to Efficacy between 100 and 50)”; the EC50 was over 5 µM.

Regarding `CCN(CC)c1nc(C(N)=O)cc(-c2cc(OC)ccc2OC)n1` [Compound 217], the Efficacy entry is “++ (++ corresponds to Efficacy between 100 and 50)”; the EC50 is under 1 µM.

As for `CCN(CCc1ccccn1)c1nc(C(N)=O)cc(-c2ccccc2)n1` [Compound 218], the Efficacy result was “+++ (+++ corresponds to Efficacy greater than 100)” and the EC50 was 1 to 5 µM.

Consider `NC(=O)c1cc(-c2cc(F)cc(F)c2)nc(N2CCCCC2)n1` [Compound 219], for which the Efficacy entry is “+ (+ corresponds to Efficacy less than 50)” and the EC50 fell in the range of 1 to 5 µM.

For the compound `C=CCNc1nc(C(N)=O)cc(-c2ccc(OC)cc2)n1` [Compound 220], the Efficacy entry was “+ (+ corresponds to Efficacy less than 50)” and the EC50 was over 5 µM.

For the compound `Cc1ccc(-c2cc(C(N)=O)nc(N3CCCCC3)n2)cc1` [Compound 221], the Efficacy result was “+ (+ corresponds to Efficacy less than 50)” and the EC50 was 1 to 5 µM.

On to `CN(C)C(=O)c1cc(-c2ccccc2)nc(N2CCCCC2)n1` [Compound 222], for which the Efficacy result is “++ (++ corresponds to Efficacy between 100 and 50)”; the concentration for a half-maximal effect (EC50) was over 5 µM.

For the compound `CCN(CC)c1nc(C(N)=O)cc(-c2ccc(C(=O)OC)cc2)n1` [Compound 223], the Efficacy result is “+++ (+++ corresponds to Efficacy greater than 100)” and the EC50 was 1 to 5 µM.

In the case of `COc1ccc(C(C)C)cc1-c1cc(C(N)=O)nc(N2CCCCC2)n1` [Compound 224], the Efficacy result is “+ (+ corresponds to Efficacy less than 50)” and the EC50 was over 5 µM.

In the case of `CCN(CC)c1nc(C(N)=O)cc(-c2cc(Cl)ccc2Cl)n1` [Compound 225], the Efficacy result is recorded as “+++ (+++ corresponds to Efficacy greater than 100)” and the EC50 was under 1 µM.

As for `CCN(CC)c1nc(C(N)=O)cc(-c2cc(Cl)cc(Cl)c2)n1` [Compound 226], the Efficacy entry is “++ (++ corresponds to Efficacy between 100 and 50)”; the EC50 is 1 to 5 µM.

On to `NC(=O)c1cc(-c2ccc3c(c2)OCO3)nc(N2CCCCC2)n1` [Compound 227], for which the Efficacy entry was “++ (++ corresponds to Efficacy between 100 and 50)”; the EC50 is over 5 µM.

Turning to `CCN(CCO)c1nc(C(N)=O)cc(-c2ccccc2OC)n1` [Compound 228], the Efficacy entry is “++ (++ corresponds to Efficacy between 100 and 50)”; the EC50 was over 5 µM.

For `CCN(CC)c1nc(C(N)=O)cc(-c2ccc(OC)nc2)n1` [Compound 229], the Efficacy result was “++ (++ corresponds to Efficacy between 100 and 50)”; the EC50 was 1 to 5 µM.

Regarding `CCN(CC)c1nc(C(N)=O)cc(-c2ccc(C)cc2)n1` [Compound 230], the Efficacy result is given as “+++ (+++ corresponds to Efficacy greater than 100)” and the EC50 lay within 1 to 5 µM.

For `CNc1nc(C(N)=O)cc(-c2cccc(OC)c2)n1` [Compound 231], the Efficacy result was “++ (++ corresponds to Efficacy between 100 and 50)”; the EC50 is over 5 µM.

Regarding `CNC(=O)c1cc(-c2ccccc2)nc(N2CCCCC2)n1` [Compound 232], the Efficacy result is “+ (+ corresponds to Efficacy less than 50)” and the EC50 is 1 to 5 µM.
